The source of these data is ChEMBL document CHEMBL1201862, “PubChem BioAssay data set” (2004).

Experiment [1] has as its target T1, Tyrosine-protein phosphatase non-receptor type 7 (Homo sapiens, UniProt P35236).
T1 sequence (P35236 whole entry): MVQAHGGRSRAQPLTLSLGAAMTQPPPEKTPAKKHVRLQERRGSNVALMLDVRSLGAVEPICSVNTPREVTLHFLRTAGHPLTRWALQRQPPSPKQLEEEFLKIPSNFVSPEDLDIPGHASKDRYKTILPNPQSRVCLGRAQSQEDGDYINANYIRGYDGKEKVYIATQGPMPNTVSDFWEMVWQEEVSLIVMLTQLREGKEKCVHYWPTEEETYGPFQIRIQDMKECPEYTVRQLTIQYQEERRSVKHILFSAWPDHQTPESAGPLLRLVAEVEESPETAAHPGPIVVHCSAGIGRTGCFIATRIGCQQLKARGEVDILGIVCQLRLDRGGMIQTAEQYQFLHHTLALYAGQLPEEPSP
The experiment is described as follows: inhibitors of human HePTP phosphatase, […], biochemical, absorbance, leukemia target (AID 521). The class given is functional.

Experiment [2] is described as follows: NIH:OVCAR-3 ovarian cancer cell cytotoxicity, dose response, PAX8 inhibitor project, plate reader, dry powder samples (AID 743044). Format: functional, cell-based.
Experiment [3] is described as follows: IGROV1 ovarian cancer cell cytotoxicity, dose response, PAX8 inhibitor project, plate reader, dry powder samples (AID 743043). The class given is functional, cell-based. Particulars: IGROV-1.
The nature of experiment [4]: cytotoxicity in COV434 cells, dose response, cytotoxicity control for PAX8 inhibitor project, cell-based, plate reader, dry powder, SA7 (AID 743145). Format: functional.
A short description of experiment [5]: cytotoxicity in OVCAR4 cells, dose response, cytotoxicity control for PAX8 inhibitor project, cell-based, plate reader, dry powder, SA11 (AID 743150). The class given is functional. Particulars: OVCAR-4.
A short description of experiment [6]: cytotoxicity dependent on PAX8, dose response, cell-based, plate reader, dry powder (AID 743049). The class given is functional.
Experiment [7] addresses Paired box protein Pax-8 (Homo sapiens, UniProt Q06710). Briefly: inhibitors of PAX8-driven TPO luciferase reporter, dose response, RMG-I cells, cherry-pick (AID 687027).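 Also: luciferase reporter driven by Pax8 target thyroperoxidase promoter measured by SteadyGlo luminescence.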 The class given is functional, cell-based. Background: A reporter such as luciferase makes a cellular process visible.
A short description of experiment [8]: cytotoxicity in COV362 ovarian cancer cells, dose response, cytotoxicity control for PAX8 inhibitor project, cell-based, plate reader, dry powder, SA12 (AID 743144). Format: functional.
Experiment [9] is described as follows: cytotoxicity in OV-90 ovarian cancer cells, dose response, PAX8 inhibitor project, cell-based, plate reader, dry powder, SA8 (AID 743149). The class given is functional.
Experiment [10] in a line: PAX5 activity inhibitors, dose response, selectivity assay for PAX8 inhibitor project, cell-based, plate reader, dry powder samples (AID 743047).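 Also: HEK293 cells carrying a Pax5 driven CD19 promoter luciferase reporter; potency of inhibitors that lower reporter luminescence.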 Format: functional.
Experiment [11] in a line: IOSE-T80 ovarian epithelial cell cytotoxicity, dose response, cytotoxicity control for PAX8 inhibitor project, plate reader, dry powder samples (AID 743045). Format: functional, cell-based.
Experiment [12] can be described thus: Luminescence Cell-Based Dose Retest to Confirm Inhibitors of Cancer Stem Cells. [Related pubchem assays (depositor defined):AID2717, AID2721]. Format: functional. Particulars: Homo sapiens.
Experiment [13] can be described thus: HeLa 4N DNA content increase, dose response, cell-based, IC50 (AID 1117351). Format: functional.
Experiment [14] in a line: HCT116 cell viability decrease, GSK3B pretreatment – CellTiter-Glo, IC50, dose response (AID 1117339). The class given is functional. Particulars: HCT-116. A general note: ATP-based viability assays read luminescence as a measure of living cells.
Experiment [15] can be described thus: CellTiter-Glo luminescent dose response of DLD-1 viability loss (AID 1117352). The class given is functional.
Experiment [16] can be described thus: cytotoxicity toward HCT116 cells – cell-based, CellTiter-Glo luminescence, IC50, dose response (AID 1117332). The class given is functional. The conditions noted are these: HCT-116.
Experiment [17] in a line: cytotoxicity toward HT-29 cells – cell-based, CellTiter-Glo luminescence, IC50, dose response (AID 1117330). The class given is functional.
Experiment [18] in a line: HeLa 2N DNA content increase, dose response, cell-based, IC50 (AID 1117349). Format: functional.
A short description of experiment [19]: cytotoxicity toward Colo320 cells – cell-based, CellTiter-Glo luminescence, IC50, dose response (AID 1117334). The conditions noted are these: COLO 320. The class given is functional.
Experiment [20] is described as follows: RKO cell viability reduction, dose response, CellTiter-Glo luminescence (AID 1117322). The class given is functional.
Experiment [21] can be described thus: Concentration-dependent survival of SW480 colon cancer line, luminescence detection with CellTiter-Glo, half-maximal inhibitory concentration (AID 1117338). Format: functional.
Experiment [22] is described as follows: SNU-C1 cell viability reduction, dose response, CellTiter-Glo luminescence (AID 1117323). The class given is functional, cell-based.
A short description of experiment [23]: MITF Measured in Cell-Based System Using Plate Reader - 2084-01_Inhibitor_Dose_DryPowder_Activity_Set6. The class given is functional.
A short description of experiment [24]: MITF Measured in Cell-Based System Using Plate Reader - 2084-01_Inhibitor_Dose_DryPowder_Activity_Set7. Format: functional.
Experiment [25] in a line: MITF Orthogonal Assay: MALME3 CTG Assay Measured in Cell-Based System Using Plate Reader - 2084-04_Inhibitor_Dose_DryPowder_Activity_Set6. Format: functional. The conditions noted are these: MALME-3.
Experiment [26] in a line: SK-MEL-5 parental line viability, dose response, MITF inhibitor project, cell-based, CellTiter-Glo, dry powder, set 6 (AID 624429). Format: functional.
Experiment [27] is described as follows: TRPM1 promoter luciferase reporter signal decrease, dose response, MITF inhibitor project, cell-based, SK-MEL-5, dry powder, set 9 (AID 651588). The class given is functional.
Experiment [28] can be described thus: cytotoxicity in primary human melanocytes, dose response, cytotoxicity control, cell-based, plate reader, dry powder (AID 651920). Format: functional.
Experiment [29] can be described thus: A375 melanoma cell viability loss, dose response, counter-screen for MITF inhibitor project, CellTiter-Glo luminescence, dry powder, set 4 (AID 624364).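 Also: A375 melanoma cells are MITF independent so this is a counter screen.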 The conditions noted are these: A-375. The class given is functional, cell-based. On the technique in general: The purpose of a counterscreen is to sort out artefacts and off-target activity.
Experiment [30] can be described thus: A375 melanoma cell cytotoxicity, dose response, counter-screen for MITF inhibitor project, CellTiter-Glo luminescence, dry powder, set 6 (AID 624488). Particulars: A-375. The class given is functional, cell-based.
Experiment [31] in a line: SK-MEL-5 parental cell viability reduction, dose response, orthogonal assay for MITF inhibitor project, CellTiter-Glo luminescence, dry powder, set 8 (AID 651586). Format: functional, cell-based.
The nature of experiment [32]: A375 melanoma cell viability loss, dose response, counter-screen for MITF modulator project, CellTiter-Glo luminescence, dry powder, set 9 (AID 651591). The class given is functional, cell-based. The conditions noted are these: A-375.
The nature of experiment [33]: A375 melanoma cell cytotoxicity, dose response, counter-screen for MITF inhibitor project, CellTiter-Glo luminescence, dry powder, set 2 (AID 624489).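 Also: actives are compounds lowering A375 viability meaning general cytotoxicity.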 Format: functional, cell-based. Particulars: A-375.
The nature of experiment [34]: MALME3 melanoma cell viability reduction, dose response, orthogonal assay for MITF inhibitor project, CellTiter-Glo luminescence, dry powder, set 5 (AID 651584). Format: functional, cell-based. Particulars: MALME-3.
A short description of experiment [35]: MITF Orthogonal Assay: SK-MEL-5 CTG Assay Measured in Cell-Based System Using Plate Reader - 2084-02_Inhibitor_Dose_DryPowder_Activity_Set5. The class given is functional.
The nature of experiment [36]: A375 melanoma cell cytotoxicity, dose response, counter-screen for MITF inhibitor project, CellTiter-Glo luminescence, dry powder, set 7 (AID 624490). Format: functional, cell-based. Particulars: A-375.
Experiment [37] is described as follows: A549 cell cytotoxicity, dose response, cytotoxicity control, 24 h, CellTiter-Glo luminescence, cherry-picks (AID 1053115). The class given is functional, cell-based. The conditions noted are these: A549, 24 h.
Experiment [38] addresses Phospholipase D2 (Homo sapiens, UniProt O14939). Briefly: PLD2 Cellular Concentration Response Study. Format: functional.
Experiment [39] addresses Phospholipase D1 (Homo sapiens, UniProt Q13393). Briefly: PLD1 Cellular Concentration Response Study. Format: functional.
Experiment [40] deals with G-protein coupled receptor 183 (Homo sapiens, UniProt P32249). Briefly: SAR confirmation of small molecule antagonists of the EBI2 receptor via a luminescent beta-arrestin assa. The class given is functional.

Activity calls are given as the source filed them. Some results are limits rather than exact numbers.

What is called IC50 is the concentration that inhibits the measured activity by half. By AC50 is commonly meant the midpoint of the concentration-response curve, whichever way the signal moves.

Sequence of Phospholipase D2 (O14939 whole entry): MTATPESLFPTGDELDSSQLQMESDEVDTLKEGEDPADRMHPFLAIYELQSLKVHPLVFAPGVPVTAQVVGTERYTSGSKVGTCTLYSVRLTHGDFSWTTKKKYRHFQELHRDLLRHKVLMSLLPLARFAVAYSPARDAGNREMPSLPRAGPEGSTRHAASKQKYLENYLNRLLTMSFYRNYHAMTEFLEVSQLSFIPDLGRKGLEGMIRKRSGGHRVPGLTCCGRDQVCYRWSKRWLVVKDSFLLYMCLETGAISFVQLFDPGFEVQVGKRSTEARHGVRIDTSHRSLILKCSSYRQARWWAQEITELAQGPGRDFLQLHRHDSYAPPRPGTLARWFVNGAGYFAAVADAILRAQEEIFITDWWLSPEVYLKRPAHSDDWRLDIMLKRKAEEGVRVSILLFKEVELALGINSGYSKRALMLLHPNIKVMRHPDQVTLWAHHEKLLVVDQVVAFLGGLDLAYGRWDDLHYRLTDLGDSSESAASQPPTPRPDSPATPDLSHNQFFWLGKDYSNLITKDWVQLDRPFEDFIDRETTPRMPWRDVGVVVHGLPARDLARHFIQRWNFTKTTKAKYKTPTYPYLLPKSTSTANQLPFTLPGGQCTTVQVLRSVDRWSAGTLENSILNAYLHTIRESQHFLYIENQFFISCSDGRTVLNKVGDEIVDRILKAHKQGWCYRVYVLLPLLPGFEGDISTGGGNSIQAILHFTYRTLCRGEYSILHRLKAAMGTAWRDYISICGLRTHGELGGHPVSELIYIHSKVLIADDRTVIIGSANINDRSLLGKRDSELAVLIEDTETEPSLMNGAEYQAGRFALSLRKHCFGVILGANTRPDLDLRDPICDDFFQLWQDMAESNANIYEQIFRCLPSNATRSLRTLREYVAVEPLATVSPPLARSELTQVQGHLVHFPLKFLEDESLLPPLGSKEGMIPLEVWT
Sequence of G-protein coupled receptor 183 (P32249 whole entry): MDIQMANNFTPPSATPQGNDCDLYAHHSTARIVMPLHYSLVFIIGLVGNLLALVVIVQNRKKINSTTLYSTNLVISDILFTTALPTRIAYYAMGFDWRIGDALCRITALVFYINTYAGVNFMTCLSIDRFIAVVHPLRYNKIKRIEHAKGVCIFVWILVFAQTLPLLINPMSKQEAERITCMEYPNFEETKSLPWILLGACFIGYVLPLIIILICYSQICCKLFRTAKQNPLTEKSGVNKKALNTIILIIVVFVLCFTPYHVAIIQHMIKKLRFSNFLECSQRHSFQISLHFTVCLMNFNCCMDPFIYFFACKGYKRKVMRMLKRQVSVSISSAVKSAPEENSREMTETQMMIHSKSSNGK
Sequence of Paired box protein Pax-8 (Q06710 whole entry): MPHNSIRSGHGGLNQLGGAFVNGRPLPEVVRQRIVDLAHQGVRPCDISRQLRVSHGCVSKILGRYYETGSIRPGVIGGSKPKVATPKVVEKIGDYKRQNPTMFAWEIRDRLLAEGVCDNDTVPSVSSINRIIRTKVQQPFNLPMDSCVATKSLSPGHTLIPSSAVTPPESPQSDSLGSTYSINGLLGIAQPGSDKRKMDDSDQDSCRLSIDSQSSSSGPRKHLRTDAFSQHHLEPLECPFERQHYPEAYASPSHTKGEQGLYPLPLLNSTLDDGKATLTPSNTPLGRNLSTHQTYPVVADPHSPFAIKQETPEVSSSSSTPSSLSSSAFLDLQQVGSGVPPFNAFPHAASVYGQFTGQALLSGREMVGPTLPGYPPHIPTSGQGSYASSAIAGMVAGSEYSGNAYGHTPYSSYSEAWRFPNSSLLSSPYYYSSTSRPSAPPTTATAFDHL
Sequence of Phospholipase D1 (Q13393 whole entry): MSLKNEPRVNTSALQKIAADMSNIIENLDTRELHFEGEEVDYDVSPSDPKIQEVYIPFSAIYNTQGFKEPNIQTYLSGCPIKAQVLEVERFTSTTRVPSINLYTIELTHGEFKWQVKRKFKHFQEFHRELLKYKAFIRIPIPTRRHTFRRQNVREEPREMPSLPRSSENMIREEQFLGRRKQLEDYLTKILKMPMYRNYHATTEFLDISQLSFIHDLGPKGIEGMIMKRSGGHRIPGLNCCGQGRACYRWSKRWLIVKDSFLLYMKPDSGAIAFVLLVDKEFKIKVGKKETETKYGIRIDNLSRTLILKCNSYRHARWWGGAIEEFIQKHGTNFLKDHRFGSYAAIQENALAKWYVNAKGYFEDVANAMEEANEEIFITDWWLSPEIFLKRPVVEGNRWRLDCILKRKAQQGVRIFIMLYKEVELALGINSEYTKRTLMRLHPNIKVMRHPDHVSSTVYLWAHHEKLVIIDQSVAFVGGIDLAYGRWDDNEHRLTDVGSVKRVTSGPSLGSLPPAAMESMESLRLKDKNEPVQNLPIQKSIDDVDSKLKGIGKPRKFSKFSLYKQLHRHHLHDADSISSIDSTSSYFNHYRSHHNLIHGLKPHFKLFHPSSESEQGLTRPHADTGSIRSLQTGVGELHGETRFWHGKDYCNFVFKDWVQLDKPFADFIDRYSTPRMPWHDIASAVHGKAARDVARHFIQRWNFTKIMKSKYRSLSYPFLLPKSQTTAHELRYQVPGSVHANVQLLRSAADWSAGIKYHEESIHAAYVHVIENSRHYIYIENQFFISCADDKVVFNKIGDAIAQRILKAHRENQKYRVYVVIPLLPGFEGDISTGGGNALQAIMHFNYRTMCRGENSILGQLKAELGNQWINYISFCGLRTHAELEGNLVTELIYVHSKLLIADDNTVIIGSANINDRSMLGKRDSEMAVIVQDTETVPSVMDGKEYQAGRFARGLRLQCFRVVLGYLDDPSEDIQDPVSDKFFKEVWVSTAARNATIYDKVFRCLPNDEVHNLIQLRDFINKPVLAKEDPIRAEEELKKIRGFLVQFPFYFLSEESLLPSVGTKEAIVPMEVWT

Turning to `Cc1c(C(=O)N2CCOCC2)[nH]c2ccc(OCc3ccccc3)cc12`, in [1], the concentration for half-maximal inhibition (IC50) was > 100 µM (not active).

For the molecule `NS(=O)(=O)c1ccc(CCN2C(=O)/C(=C\c3ccc(Cl)cc3)SC2=S)cc1`, the AC50 in experiment [2] is 22.3 µM (active); in experiment [3], 30.4 µM (active); in experiment [4], 29.8 µM (active); in experiment [5], 48.2 µM (active); in experiment [6], 15.5 µM (active); in experiment [7] it was 3.81 µM (active). In addition, the half-maximal activity concentration (AC50) is 24.9 µM (active) in experiment [8], 26.2 µM (active) in experiment [9], 67.7 µM (active) in experiment [10] and 79.8 µM (active) in [11].

For the molecule `O=C1[C@H]2CCCC[C@H]2C(=O)N1CCCCN1CCN(c2nsc3ccccc23)CC1`, in experiment [12], the AC50 was 3.47 µM (active). The IC50 in experiment [13] was > 10 µM (inactive); in experiment [14], 1.67 µM (active); in [15] it was 8.24 µM (inactive); in [16] it was 2.06 µM (active); in experiment [17], 2.01 µM (active); in experiment [18], > 10 µM (inactive). Moreover, the IC50 in [19] was 13.2 µM (inactive); in [20], 0.546 µM (active); in experiment [21], 5.91 µM (inactive); in [22] it was 9.37 µM (inactive).

`COC1=C(NS(=O)(=O)c2ccccc2)C(=O)c2ccccc2C1=O`: the AC50 in experiment [23] was 6.32 µM (active); in [24] it was 7.44 µM (active); in experiment [25] it was 31.8 µM (active); in experiment [26] it was 16.4 µM (active); in experiment [27], 18.9 µM (active); in experiment [28], 27.5 µM (active). Besides, the AC50 in experiment [29] was > 70 µM (inactive); in experiment [30], > 70 µM (inactive); in experiment [31] it was 14.5 µM (active); in [32], > 70 µM (inactive); in [33], > 70 µM (inactive); in [34], 31.8 µM (active). In addition, the figures for the AC50 in [35] and in experiment [36] were 9.13 µM (active) and > 70 µM (inactive), respectively.

`OC[C@H]1Nc2ccc(-c3cccc(F)c3)cc2[C@H]2[C@@H]1CCN2Cc1ccc(F)cc1`: the AC50 in experiment [37] was 45.3 µM (active).

Regarding `O=C(NCCN1CCC2(CC1)C(=O)NCN2Cc1ccncc1)c1ccc2ccccc2c1`, the values for the half-maximal inhibitory concentration (IC50) in [38] and in [39] were 0.85 µM (active) and 20 µM (active), respectively.

As for `O=C(/C=C/c1ccccc1)N1CCN(Cc2ccc(Cl)cc2)CC1`, in [40], the 50% inhibitory concentration (IC50) was 0.0984 µM (active).
